Experimental findings from the supplement of paper PMC10307832 are described below.

What all share (assay): relative viability (nuclei count vs DMSO), 5 days (fraction); higher = more cells survive
Compound in the test “FH535 + Pemetrexed”: CC1=C(C=CC(=C1)[N+](=O)[O-])NS(=O)(=O)C2=C(C=CC(=C2)Cl)Cl [FH535] + Nc1nc2[nH]cc(CCc3ccc(C(=O)N[C@@H](CCC(=O)O)C(=O)O)cc3)c2c(=O)[nH]1 [Pemetrexed] (partner 0.2 µM)
The method, boiled down:
(§1)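 After 5 days of treatment, lung cancer cells in 1536-well plates were fixed and stained in a single step (final 0.05% Triton X-100, 1% formaldehyde, 1 ug/ml Hoechst) and their nuclei counted on 4× images. Treatment had been applied by pin tool the day after seeding as one drug alone or as a fixed anchor-drug dose with five library-drug doses (not always all listed) in √10 steps. Relative viability is the nuclei count of treated wells divided by that of vehicle wells, and values are medians of duplicate plates.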

Compound in the test “FH535 + Palbociclib”: CC1=C(C=CC(=C1)[N+](=O)[O-])NS(=O)(=O)C2=C(C=CC(=C2)Cl)Cl [FH535] + CC(=O)c1c(C)c2cnc(Nc3ccc(N4CCNCC4)cn3)nc2n(C2CCCC2)c1=O [Palbociclib] (partner 0.5 µM)
In a few lines:
as §1

Compound in the test “FH535 + OSI-027”: CC1=C(C=CC(=C1)[N+](=O)[O-])NS(=O)(=O)C2=C(C=CC(=C2)Cl)Cl [FH535] + COc1cccc2cc(-c3nc([C@H]4CC[C@H](C(=O)O)CC4)n4ncnc(N)c34)[nH]c12 [OSI-027] (partner 0.5 µM)
In a few lines:
as §1

Compound in the test “FH535 + Bortezomib”: CC1=C(C=CC(=C1)[N+](=O)[O-])NS(=O)(=O)C2=C(C=CC(=C2)Cl)Cl [FH535] + CC(C)C[C@H](NC(=O)[C@H](Cc1ccccc1)NC(=O)c1cnccn1)B(O)O [Bortezomib] (partner 0.002 µM)
The method, boiled down: as §1

Compound in the test “FH535 + Tozasertib”: CC1=C(C=CC(=C1)[N+](=O)[O-])NS(=O)(=O)C2=C(C=CC(=C2)Cl)Cl [FH535] + Cc1cc(Nc2cc(N3CCN(C)CC3)nc(Sc3ccc(NC(=O)C4CC4)cc3)n2)n[nH]1 [Tozasertib] (partner 0.1 µM)
The method, boiled down:
as §1

Turning to PC-14, the relative viability is 0.12 with FH535 + Pemetrexed (first compound 0.04 µM); 0.137 with FH535 + Pemetrexed (first compound 0.1265 µM); 0.13 in the test with FH535 + Pemetrexed (first compound 0.4 µM); 0.123 in the test with FH535 + Pemetrexed (first compound 1.265 µM); 0.512 with FH535 + Palbociclib (first compound 0.04 µM); 0.6 with FH535 + Palbociclib (first compound 0.1265 µM). Further, the relative viability with FH535 + Palbociclib (first compound 0.4 µM) amounted to 0.593; in the test with FH535 + Palbociclib (first compound 1.265 µM) it was 0.548; in the test with FH535 + OSI-027 (first compound 0.04 µM) it was 0.83; with FH535 + OSI-027 (first compound 0.1265 µM), 0.9; with FH535 + OSI-027 (first compound 0.4 µM) it was 0.896; in the test with FH535 + OSI-027 (first compound 1.265 µM), 0.783. The relative viability turned out to be 0.938 in the test with FH535 + Bortezomib (first compound 0.04 µM); 0.885 with FH535 + Bortezomib (first compound 0.1265 µM); 0.815 in the test with FH535 + Bortezomib (first compound 0.4 µM); 0.759 with FH535 + Bortezomib (first compound 1.265 µM); 0.507 with FH535 + Tozasertib (first compound 0.04 µM); 0.693 in the test with FH535 + Tozasertib (first compound 0.1265 µM). Besides, the results for the relative viability with FH535 + Tozasertib (first compound 0.4 µM) and with FH535 + Tozasertib (first compound 1.265 µM) were 0.615 and 0.617, respectively.

Turning to NCI-H322M, the relative viability in the test with FH535 + Pemetrexed (first compound 0.04 µM) was determined as 0.559; with FH535 + Pemetrexed (first compound 0.1265 µM) it was 0.67; with FH535 + Pemetrexed (first compound 0.4 µM), 0.633; with FH535 + Pemetrexed (first compound 1.265 µM), 0.587; with FH535 + Palbociclib (first compound 0.04 µM), 0.489; with FH535 + Palbociclib (first compound 0.1265 µM), 0.481. Further, the relative viability with FH535 + Palbociclib (first compound 0.4 µM) was found to be 0.524; with FH535 + Palbociclib (first compound 1.265 µM), 0.511; with FH535 + OSI-027 (first compound 0.04 µM), 0.543; with FH535 + OSI-027 (first compound 0.1265 µM) it was 0.54; with FH535 + OSI-027 (first compound 0.4 µM), 0.577; in the test with FH535 + OSI-027 (first compound 1.265 µM) it was 0.394. For the same cell line, the relative viability worked out at 1.21 with FH535 + Bortezomib (first compound 0.04 µM); 1.14 in the test with FH535 + Bortezomib (first compound 0.1265 µM); 1.07 with FH535 + Bortezomib (first compound 0.4 µM); 1.08 in the test with FH535 + Bortezomib (first compound 1.265 µM); 0.493 with FH535 + Tozasertib (first compound 0.04 µM); 0.514 with FH535 + Tozasertib (first compound 0.1265 µM). Also, the relative viability is 0.475 with FH535 + Tozasertib (first compound 0.4 µM) and 0.468 with FH535 + Tozasertib (first compound 1.265 µM).

For the cell line NCI-H1944, the relative viability with FH535 + Pemetrexed (first compound 0.04 µM) amounted to 0.53; with FH535 + Pemetrexed (first compound 0.1265 µM) it was 0.621; with FH535 + Pemetrexed (first compound 0.4 µM), 0.505; with FH535 + Pemetrexed (first compound 1.265 µM), 0.515; with FH535 + Palbociclib (first compound 0.04 µM), 0.328; with FH535 + Palbociclib (first compound 0.1265 µM), 0.326. The relative viability in the test with FH535 + Palbociclib (first compound 0.4 µM) amounted to 0.35; with FH535 + Palbociclib (first compound 1.265 µM) it was 0.272; in the test with FH535 + OSI-027 (first compound 0.04 µM) it was 0.35; with FH535 + OSI-027 (first compound 0.1265 µM), 0.449; in the test with FH535 + OSI-027 (first compound 0.4 µM) it was 0.364; with FH535 + OSI-027 (first compound 1.265 µM) it was 0.365. In addition, the relative viability worked out at 0.237 in the test with FH535 + Tozasertib (first compound 0.04 µM), 0.265 with FH535 + Tozasertib (first compound 0.1265 µM), 0.234 in the test with FH535 + Tozasertib (first compound 0.4 µM) and 0.236 with FH535 + Tozasertib (first compound 1.265 µM).

For NCI-H2170, the relative viability was found to be 0.262 with FH535 + Pemetrexed (first compound 0.04 µM); 0.253 in the test with FH535 + Pemetrexed (first compound 0.1265 µM); 0.252 in the test with FH535 + Pemetrexed (first compound 0.4 µM); 0.259 with FH535 + Pemetrexed (first compound 1.265 µM); 0.397 with FH535 + Palbociclib (first compound 0.04 µM); 0.423 in the test with FH535 + Palbociclib (first compound 0.1265 µM). The relative viability with FH535 + Palbociclib (first compound 0.4 µM) came out at 0.372; with FH535 + Palbociclib (first compound 1.265 µM), 0.312; with FH535 + OSI-027 (first compound 0.04 µM), 0.72; in the test with FH535 + OSI-027 (first compound 0.1265 µM), 0.779; with FH535 + OSI-027 (first compound 0.4 µM), 0.619; with FH535 + OSI-027 (first compound 1.265 µM) it was 0.554. In addition, the relative viability with FH535 + Tozasertib (first compound 0.04 µM) turned out to be 0.674; with FH535 + Tozasertib (first compound 0.1265 µM), 0.772; in the test with FH535 + Tozasertib (first compound 0.4 µM), 0.69; with FH535 + Tozasertib (first compound 1.265 µM) it was 0.697.

For LK-2, the relative viability with FH535 + Pemetrexed (first compound 0.04 µM) was found to be 0.271; with FH535 + Pemetrexed (first compound 0.1265 µM), 0.288; with FH535 + Pemetrexed (first compound 0.4 µM), 0.278; with FH535 + Pemetrexed (first compound 1.265 µM) it was 0.307; in the test with FH535 + Palbociclib (first compound 0.04 µM), 0.624; with FH535 + Palbociclib (first compound 0.1265 µM) it was 0.578. Besides, the relative viability with FH535 + Palbociclib (first compound 0.4 µM) is 0.553; with FH535 + Palbociclib (first compound 1.265 µM), 0.593; with FH535 + OSI-027 (first compound 0.04 µM) it was 0.181; with FH535 + OSI-027 (first compound 0.1265 µM), 0.208; with FH535 + OSI-027 (first compound 0.4 µM) it was 0.2; in the test with FH535 + OSI-027 (first compound 1.265 µM) it was 0.155. The relative viability worked out at 0.166 in the test with FH535 + Tozasertib (first compound 0.04 µM), 0.172 with FH535 + Tozasertib (first compound 0.1265 µM), 0.169 with FH535 + Tozasertib (first compound 0.4 µM) and 0.201 with FH535 + Tozasertib (first compound 1.265 µM).

In the case of RERF-LC-KJ, the relative viability came to 0.466 in the test with FH535 + Pemetrexed (first compound 0.04 µM); 0.491 in the test with FH535 + Pemetrexed (first compound 0.1265 µM); 0.469 with FH535 + Pemetrexed (first compound 0.4 µM); 0.435 in the test with FH535 + Pemetrexed (first compound 1.265 µM); 0.992 with FH535 + Palbociclib (first compound 0.04 µM); 1.05 with FH535 + Palbociclib (first compound 0.1265 µM). The relative viability was 0.957 with FH535 + Palbociclib (first compound 0.4 µM); 0.846 with FH535 + Palbociclib (first compound 1.265 µM); 0.538 in the test with FH535 + OSI-027 (first compound 0.04 µM); 0.616 with FH535 + OSI-027 (first compound 0.1265 µM); 0.6 with FH535 + OSI-027 (first compound 0.4 µM); 0.4 in the test with FH535 + OSI-027 (first compound 1.265 µM). Moreover, the relative viability with FH535 + Bortezomib (first compound 0.04 µM) is 1.11; in the test with FH535 + Bortezomib (first compound 0.1265 µM), 1.11; with FH535 + Bortezomib (first compound 0.4 µM), 1.11; in the test with FH535 + Bortezomib (first compound 1.265 µM), 0.788; in the test with FH535 + Tozasertib (first compound 0.04 µM) it was 0.515; with FH535 + Tozasertib (first compound 0.1265 µM), 0.52. Moreover, the relative viability turned out to be 0.473 with FH535 + Tozasertib (first compound 0.4 µM) and 0.386 in the test with FH535 + Tozasertib (first compound 1.265 µM).

In the case of COR-L23, the relative viability amounted to 0.188 with FH535 + Pemetrexed (first compound 0.04 µM); 0.192 with FH535 + Pemetrexed (first compound 0.1265 µM); 0.2 with FH535 + Pemetrexed (first compound 0.4 µM); 0.205 in the test with FH535 + Pemetrexed (first compound 1.265 µM); 0.3 with FH535 + Palbociclib (first compound 0.04 µM); 0.327 with FH535 + Palbociclib (first compound 0.1265 µM). The relative viability in the test with FH535 + Palbociclib (first compound 0.4 µM) stood at 0.263; in the test with FH535 + Palbociclib (first compound 1.265 µM), 0.256; in the test with FH535 + OSI-027 (first compound 0.04 µM) it was 0.778; with FH535 + OSI-027 (first compound 0.1265 µM), 0.621; in the test with FH535 + OSI-027 (first compound 0.4 µM), 0.643; with FH535 + OSI-027 (first compound 1.265 µM), 0.408. Further, the relative viability came to 0.845 with FH535 + Bortezomib (first compound 0.04 µM); 1.04 with FH535 + Bortezomib (first compound 0.1265 µM); 0.816 in the test with FH535 + Bortezomib (first compound 0.4 µM); 0.587 with FH535 + Bortezomib (first compound 1.265 µM); 0.183 with FH535 + Tozasertib (first compound 0.04 µM); 0.17 in the test with FH535 + Tozasertib (first compound 0.1265 µM). The figures for the relative viability in the test with FH535 + Tozasertib (first compound 0.4 µM) and in the test with FH535 + Tozasertib (first compound 1.265 µM) were 0.185 and 0.167, respectively.
